Read-outs that look alike come from different tables or passages of the source.

For assay [1], the target named is GluN2B glutamate receptors (Homo sapiens (Human), UniProt Q05586+Q13224). As to the kind of experiment: Whole-cell patch clamp of mammalian cells (Ionworks Barracuda), positive allosteric modulation, GluN2B. In kind it is cell-based. To be noted: for Emax: read-out: Avg Emax 2B (%). On the procedure: (§1) The measurements were performed using Ion Works Barracuda platform following this procedure:
(§2) Electrophysiological Procedures:
(§3) • a) Intracellular solution (mM): 50 mM CsCl, 90 mM CsF, 2 mM MgCl2, 5 mM EGTA, 10 mM HEPES. Adjust to pH 7.2 with CsOH. • b) Extracellular solution, HB-PS (composition in mM): NaCl, 137; KCl, 1.0; CaCl2), 5; HEPES, 10; Glucose, 10; pH adjusted to 7.4 with NaOH (refrigerated until use). • c) Holding potential: −70 mV, potential during agonist/PAM application: −40 mV. Recording Procedure: • a) Extracellular buffer will be loaded into the PPC plate wells (11 μL per well). Cell suspension will be pipetted into the wells (9 μL per well) of the PPC planar electrode. • b) Whole-cell recording configuration will be established via patch perforation with membrane currents recorded by on-board patch clamp amplifiers. • c) Two recordings (scans) will be performed. First, during pre-application of test article alone (duration of pre-application—[…]) and second, during test articles and agonist (EC20 L-glutamate and 30 μM glycine) co-application to detect positive modulatory effects of the test article. […] Potentiating Effect of Positive Allosteric Modulators (PAM) on the Channel
(§4) PAM concentration-response data will be fitted to an equation of the form: % Activation=% L-glutamate EC20+{(% MAX−% L-glutamate EC20)/[1+([Test]/EC50)^N]}, where [Test] will be the concentration of PAM (test article), EC50 will be the concentration of PAM producing half-maximal activation, N will be the Hill coefficient, % L-glutamate EC20 will be the percentage of the current Elicited with L-glutamate EC20, % MAX is the percentage of the current activated with the highest dose of PAM co-admitted with L-glutamate EC20 and % Activation will be the percentage of the current elicited with L-glutamate EC10-30 at each PAM concentration. The maximal amplitude of the evoked currents are measured and defined as Peak Current Amplitude (PCA).
For orientation: In patch-clamp work, channel activity is measured electrically.

For assay [2], the target named is GlunN1/GluN2A glutamate receptors (Homo sapiens (Human), UniProt Q05586+Q12879). The experiment in a line: Whole-cell patch clamp of mammalian cells (Ionworks Barracuda), positive allosteric modulation, GluN1/GluN2A. In kind it is cell-based. As to the method:
as §1, §2, §3, §4

[3] abbreviates: % potentiation of current elicited with EC20 L-glutamate and 30 μM glycine.
Setting [4] is: HEK293 cells, % potentiation of current elicited with EC20 L-glutamate and 30 μM glycine, read-out: Avg Emax 2A (%).
[5] abbreviates: HEK293 cells, co-application with EC20 L-glutamate and 30 μM glycine, 8-point concentration-response, read-out: Avg EC50 2A.
Setting [6] is: co-application with EC20 L-glutamate and 30 μM glycine, 8-point concentration-response, read-out: Avg EC50 2B.

GlunN1/GluN2A glutamate receptors, sequence (Q12879 23-1464, other chains not shown): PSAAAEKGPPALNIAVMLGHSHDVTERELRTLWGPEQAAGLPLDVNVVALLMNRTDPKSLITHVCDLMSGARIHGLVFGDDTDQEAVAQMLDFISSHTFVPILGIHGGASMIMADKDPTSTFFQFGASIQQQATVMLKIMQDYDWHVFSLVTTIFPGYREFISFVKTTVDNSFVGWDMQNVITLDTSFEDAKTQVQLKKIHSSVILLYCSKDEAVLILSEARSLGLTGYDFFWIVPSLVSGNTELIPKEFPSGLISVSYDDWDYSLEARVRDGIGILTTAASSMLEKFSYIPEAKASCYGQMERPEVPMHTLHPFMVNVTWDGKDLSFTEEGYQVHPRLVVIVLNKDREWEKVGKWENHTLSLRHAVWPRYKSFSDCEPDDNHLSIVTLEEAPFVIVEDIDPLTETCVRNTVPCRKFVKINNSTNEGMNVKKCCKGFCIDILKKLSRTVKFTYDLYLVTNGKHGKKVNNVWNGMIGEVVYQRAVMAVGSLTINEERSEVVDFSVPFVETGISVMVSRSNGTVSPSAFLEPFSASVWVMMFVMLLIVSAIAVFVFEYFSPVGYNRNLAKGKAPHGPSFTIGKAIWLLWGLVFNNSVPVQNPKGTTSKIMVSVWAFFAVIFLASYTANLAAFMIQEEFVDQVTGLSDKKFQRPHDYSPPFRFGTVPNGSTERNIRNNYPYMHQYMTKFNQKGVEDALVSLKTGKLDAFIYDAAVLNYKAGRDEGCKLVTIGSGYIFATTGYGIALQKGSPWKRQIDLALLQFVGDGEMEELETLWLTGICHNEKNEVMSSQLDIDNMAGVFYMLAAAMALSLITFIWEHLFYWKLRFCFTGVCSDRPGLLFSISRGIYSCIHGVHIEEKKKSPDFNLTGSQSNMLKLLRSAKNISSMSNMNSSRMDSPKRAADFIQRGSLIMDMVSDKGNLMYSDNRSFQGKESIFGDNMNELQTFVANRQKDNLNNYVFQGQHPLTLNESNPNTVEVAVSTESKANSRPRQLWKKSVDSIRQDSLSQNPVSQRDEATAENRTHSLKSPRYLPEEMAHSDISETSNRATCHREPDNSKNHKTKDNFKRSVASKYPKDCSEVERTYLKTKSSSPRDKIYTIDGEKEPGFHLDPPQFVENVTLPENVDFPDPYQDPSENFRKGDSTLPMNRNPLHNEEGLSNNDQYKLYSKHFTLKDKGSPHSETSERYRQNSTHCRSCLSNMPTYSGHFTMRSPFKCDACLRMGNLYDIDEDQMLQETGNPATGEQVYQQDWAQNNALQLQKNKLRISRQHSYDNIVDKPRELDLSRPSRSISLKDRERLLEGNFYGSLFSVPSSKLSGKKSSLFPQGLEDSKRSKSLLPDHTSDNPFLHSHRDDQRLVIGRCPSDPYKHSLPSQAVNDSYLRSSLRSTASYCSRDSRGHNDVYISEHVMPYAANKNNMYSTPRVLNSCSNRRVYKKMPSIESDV
GluN2B glutamate receptors, sequence (Q13224 27-1484, other chains not shown): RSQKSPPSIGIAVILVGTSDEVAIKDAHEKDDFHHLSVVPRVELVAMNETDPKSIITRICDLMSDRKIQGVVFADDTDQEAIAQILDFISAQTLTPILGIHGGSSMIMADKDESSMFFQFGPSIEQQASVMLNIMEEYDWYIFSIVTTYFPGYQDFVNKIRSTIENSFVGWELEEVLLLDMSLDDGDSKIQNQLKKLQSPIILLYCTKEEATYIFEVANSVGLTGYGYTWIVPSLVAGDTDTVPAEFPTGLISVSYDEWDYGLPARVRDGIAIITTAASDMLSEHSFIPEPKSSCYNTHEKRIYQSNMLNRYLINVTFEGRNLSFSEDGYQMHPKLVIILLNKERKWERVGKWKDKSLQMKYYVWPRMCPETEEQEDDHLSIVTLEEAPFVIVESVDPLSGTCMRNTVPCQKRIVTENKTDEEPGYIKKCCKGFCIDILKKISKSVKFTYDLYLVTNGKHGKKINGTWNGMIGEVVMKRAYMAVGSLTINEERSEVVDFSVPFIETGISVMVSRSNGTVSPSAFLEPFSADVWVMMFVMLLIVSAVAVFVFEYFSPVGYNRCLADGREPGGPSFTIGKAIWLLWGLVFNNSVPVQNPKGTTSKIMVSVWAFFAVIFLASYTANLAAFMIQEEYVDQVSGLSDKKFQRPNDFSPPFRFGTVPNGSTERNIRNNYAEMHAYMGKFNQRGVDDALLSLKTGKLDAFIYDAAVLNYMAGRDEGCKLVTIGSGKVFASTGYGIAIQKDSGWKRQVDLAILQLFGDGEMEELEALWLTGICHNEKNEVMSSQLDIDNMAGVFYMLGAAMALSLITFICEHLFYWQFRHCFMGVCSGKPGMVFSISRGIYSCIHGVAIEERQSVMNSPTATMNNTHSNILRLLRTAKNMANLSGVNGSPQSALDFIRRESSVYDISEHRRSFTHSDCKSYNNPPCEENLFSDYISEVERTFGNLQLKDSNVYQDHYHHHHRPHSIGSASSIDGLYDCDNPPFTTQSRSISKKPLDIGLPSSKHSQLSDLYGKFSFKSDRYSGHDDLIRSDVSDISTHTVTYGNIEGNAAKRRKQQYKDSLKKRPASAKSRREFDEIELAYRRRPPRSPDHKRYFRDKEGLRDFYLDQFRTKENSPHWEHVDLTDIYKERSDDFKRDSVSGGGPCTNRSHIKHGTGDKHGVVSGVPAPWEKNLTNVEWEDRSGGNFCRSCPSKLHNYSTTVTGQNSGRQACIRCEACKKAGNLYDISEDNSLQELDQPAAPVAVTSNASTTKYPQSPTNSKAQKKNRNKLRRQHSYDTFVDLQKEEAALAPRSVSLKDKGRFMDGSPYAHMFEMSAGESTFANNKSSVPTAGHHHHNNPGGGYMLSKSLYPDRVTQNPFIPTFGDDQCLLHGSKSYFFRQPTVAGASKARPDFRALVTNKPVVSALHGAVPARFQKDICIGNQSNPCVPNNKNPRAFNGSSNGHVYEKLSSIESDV

The EC50 is the concentration needed to bring the measured effect to its halfway point. A word on the Emax: it is the maximal effect, on the per cent scale that the assay sets. In the case of `CC[C@]1(O)CC[C@@]2(C)C(=CC[C@H]3[C@@H]4CC[C@H]([C@H](C)CC[C@@H](O)c5ccc(C#N)cc5)[C@@]4(C)CC[C@@H]32)C1` (single isomer, unassigned) [Compound 6680], the figures for the EC50 in assay [1] and in assay [2] were 0.464 µM and 1.37 µM, respectively. The Emax in assay [1] (setting [3]) is 123%; in assay [2] (setting [4]), 175%.

As to `CC[C@]1(O)CC[C@@]2(C)C(=CC[C@H]3[C@@H]4CC[C@H]([C@H](C)CC[C@H](O)c5ccc(C#N)cc5)[C@@]4(C)CC[C@@H]32)C1` (single isomer, unassigned) [Compound 6681], the EC50 in assay [1] was 0.36 µM; in assay [2], 0.365 µM. For the same compound, the Emax in assay [1] (setting [3]) worked out at 165%; in assay [2] (setting [4]), 172%.

In the case of `CC[C@]1(O)CC[C@@]2(C)C(=CC[C@H]3[C@@H]4CC[C@H]([C@H](C)CC[C@@H](O)c5cccc(F)c5)[C@@]4(C)CC[C@@H]32)C1` (single isomer, unassigned) [Compound 6895], the EC50 in assay [1] was 0.329 µM; in assay [2], 0.174 µM. For the same compound, the Emax is 354% in assay [1] (setting [3]) and 241% in assay [2] (setting [4]).

For `CC[C@]1(O)CC[C@@]2(C)C(=CC[C@H]3[C@@H]4CC[C@H]([C@H](C)CC[C@H](O)c5ccccc5F)[C@@]4(C)CC[C@@H]32)C1` (single isomer, unassigned) [Compound 7281], the EC50 in assay [1] was 0.303 µM; in assay [2], 0.248 µM.

Take `CC[C@]1(O)CC[C@H]2C(=CC[C@@H]3[C@@H]2CC[C@]2(C)[C@@H]([C@H](C)CC[C@@]4(O)CCOC4)CC[C@@H]32)C1` (single isomer, unassigned) [Compound 8602]: the EC50 came out at 0.434 µM in assay [1] and 1.05 µM in assay [2].

Consider `C[C@H](CC[C@H](O)C1CCC1)[C@H]1CC[C@H]2[C@@H]3CC[C@H]4C[C@](O)(C(F)(F)F)CC[C@]4(C)[C@H]3CC[C@]12C` [7−A], for which the EC50 in assay [1] stood at 0.187 µM; in assay [2], 0.248 µM. The Emax in assay [1] (setting [3]) was found to be 431%; in assay [2] (setting [4]) it was 544%.

For `C[C@H](CC[C@@H](O)C1CCC1)[C@H]1CC[C@H]2[C@@H]3CC[C@H]4C[C@](O)(C(F)(F)F)CC[C@]4(C)[C@H]3CC[C@]12C` [7−B], the EC50 in assay [1] is 0.306 µM; in assay [2] it was 0.347 µM. Moreover, the figures for the Emax in assay [1] (setting [3]) and in assay [2] (setting [4]) were 352% and 356%, respectively.

For `CC(C)[C@@H](O)CC[C@@H](C)[C@H]1CC[C@H]2[C@@H]3CC[C@H]4C[C@@](C)(O)CC[C@@H]4[C@H]3CC[C@]12C` [Compound 1A75], the maximal response (Emax) in assay [1] (setting [3]) was determined as 308%; in assay [2] (setting [4]) it was 457%.

`CC(C)[C@H](O)CC[C@@H](C)[C@H]1CC[C@H]2[C@@H]3CC[C@H]4C[C@@](C)(O)CC[C@@H]4[C@H]3CC[C@]12C` [Compound 1B75]: the Emax in assay [1] (setting [3]) is 233%; in assay [2] (setting [4]), 279%.

For `CC(C)[C@@H](O)CC[C@@H](C)[C@H]1CC[C@H]2[C@@H]3CC[C@H]4C[C@](O)(C(F)(F)F)CC[C@]4(C)[C@H]3CC[C@]12C` [Compound 2A], the EC50 in assay [1] was determined as 0.339 µM; in assay [2] (setting [5]), 0.158 µM. The Emax in assay [2] (setting [4]) is 653%.

As to `CC(C)[C@H](O)CC[C@@H](C)[C@H]1CC[C@H]2[C@@H]3CC[C@H]4C[C@](O)(C(F)(F)F)CC[C@]4(C)[C@H]3CC[C@]12C` [Compound 2B], the EC50 in assay [1] was found to be 0.143 µM; in assay [2] it was 0.131 µM. The figures for the Emax in assay [1] (setting [3]) and in assay [2] (setting [4]) were 965% and 625%, respectively.

With `CC(C)C(O)CC[C@@H](C)[C@H]1CC[C@H]2[C@@H]3CC[C@H]4C[C@](O)(C(F)(F)F)CC[C@]4(C)[C@H]3CC[C@]12C` (stereo partly drawn) [Compound 2], the EC50 in assay [1] was determined as 0.147 µM. Also, the Emax is 605% in assay [1] (setting [3]) and 709% in assay [2] (setting [4]).

As to `C[C@H](CCC(O)C(C)(C)C)[C@H]1CC[C@H]2[C@@H]3CC[C@H]4C[C@](O)(C(F)(F)F)CC[C@]4(C)[C@H]3CC[C@]12C` (stereo partly drawn) [Compound 3], the half-maximal effective concentration (EC50) in assay [1] came out at 0.338 µM; in assay [2], 0.185 µM. For the same compound, the maximal response (Emax) in assay [1] worked out at 532%; in assay [2] (HEK293, read-out: Avg Emax 2A (%)), 556%.

As to `CC[C@]1(O)CC[C@H]2[C@@H](CC[C@@H]3[C@@H]2CC[C@]2(C)[C@@H]([C@H](C)CC[C@H](O)C(C)C)CC[C@@H]32)C1` [Compound 4A77], the Emax in assay [1] (setting [3]) was 254%; in assay [2] (setting [4]), 382%. In addition, the EC50 in assay [1] (setting [6]) is 0.285 µM; in assay [2] (setting [5]), 0.427 µM.

`CC[C@]1(O)CC[C@H]2[C@@H](CC[C@@H]3[C@@H]2CC[C@]2(C)[C@@H]([C@H](C)CC[C@@H](O)C(C)C)CC[C@@H]32)C1` [Compound 4B77]: the Emax in assay [1] (setting [3]) is 320%; in assay [2] (setting [4]) it was 467%. For the same compound, the results for the half-maximal effective concentration (EC50) in assay [1] (setting [6]) and in assay [2] (setting [5]) were 0.298 µM and 0.467 µM, respectively.

Regarding `C[C@H](CC[C@](C)(O)C(F)(F)F)[C@H]1CC[C@H]2[C@@H]3CC[C@H]4C[C@](O)(C(F)(F)F)CC[C@]4(C)[C@H]3CC[C@]12C` [Compound 4], the concentration giving a half-maximal response (EC50) in assay [1] came out at 0.212 µM; in assay [2] it was 0.201 µM. The Emax was 463% in assay [1] (setting [3]) and 663% in assay [2] (setting [4]).

As to `C[C@H](CC[C@@H](O)C(F)(F)F)[C@H]1CC[C@H]2[C@@H]3CC[C@H]4C[C@](O)(C(F)(F)F)CC[C@]4(C)[C@H]3CC[C@]12C` [Compound 5], the results for the EC50 in assay [1] and in assay [2] were 0.26 µM and 0.182 µM, respectively. Besides, the Emax in assay [1] (setting [3]) stood at 455%; in assay [2] (setting [4]) it was 619%.

For the compound `C[C@H](O)CC[C@@H](C)[C@H]1CC[C@H]2[C@@H]3CC[C@H]4C[C@](O)(C(F)(F)F)CC[C@]4(C)[C@H]3CC[C@]12C` [Compound 6], the EC50 worked out at 0.733 µM in assay [1] and 0.248 µM in assay [2].

`C[C@H](CCC(O)C1CCC1)[C@H]1CC[C@H]2[C@@H]3CC[C@H]4C[C@](O)(C(F)(F)F)CC[C@]4(C)[C@H]3CC[C@]12C` (stereo partly drawn) [Compound 7]: the figures for the Emax in assay [1] (setting [3]) and in assay [2] (setting [4]) were 484% and 516%, respectively. For the same compound, the EC50 in assay [1] (setting [6]) was determined as 0.287 µM; in assay [2] (setting [5]) it was 0.3 µM.

For the compound `C[C@H](CCC1(O)CCC(F)(F)CC1)[C@H]1CC[C@H]2[C@@H]3CC[C@H]4C[C@](O)(C(F)(F)F)CC[C@]4(C)[C@H]3CC[C@]12C` [Compound 8], the EC50 in assay [1] is 0.372 µM; in assay [2], 0.446 µM.

On to `C[C@H](CCC(O)C1CCOCC1)[C@H]1CC[C@H]2[C@@H]3CC[C@H]4C[C@](O)(C(F)(F)F)CC[C@]4(C)[C@H]3CC[C@]12C` (stereo partly drawn) [Compound 9], for which the EC50 in assay [1] is 0.234 µM; in assay [2], 0.317 µM. In addition, the Emax was found to be 271% in assay [1] (setting [3]) and 181% in assay [2] (setting [4]).

With `C[C@H](CCC1(O)CCOCC1)[C@H]1CC[C@H]2[C@@H]3CC[C@H]4C[C@](O)(C(F)(F)F)CC[C@]4(C)[C@H]3CC[C@]12C` [Compound 11], the Emax in assay [1] (setting [3]) turned out to be 157%; in assay [2] (setting [4]), 151%.

As to `C[C@H](CCC(O)c1ccncc1)[C@H]1CC[C@H]2[C@@H]3CC=C4C[C@@](C)(O)CC[C@]4(C)[C@H]3CC[C@]12C` (stereo partly drawn) [Compound 154], in assay [2] (setting [4]), the Emax stood at 18.2%. The EC50 in assay [2] (setting [5]) is more than 10 µM.

With `C[C@H](CC[C@]1(O)CCOC1)[C@H]1CC[C@H]2[C@@H]3CC=C4C[C@](O)(C(F)(F)F)CC[C@]4(C)[C@H]3CC[C@]12C` [Compound 3496], the EC50 in assay [2] came out at 0.0351 µM.

`C[C@H](CC[C@]1(O)CC[C@H](C)CC1)[C@H]1CC[C@H]2[C@@H]3CC[C@H]4C[C@](O)(C(F)(F)F)CC[C@]4(C)[C@H]3CC[C@]12C` [Compound 3877]: the EC50 in assay [1] came to 0.512 µM.

Consider `CC[C@]1(O)CC[C@@]2(C)C(=CC[C@H]3[C@@H]4CC[C@H]([C@H](C)CC[C@H](O)c5ccc(F)cc5)[C@@]4(C)CC[C@@H]32)C1` [Compound 7146], for which the EC50 in assay [1] was found to be 0.216 µM.

As to `C[C@H](CC[C@@](C)(O)c1ccccc1)[C@H]1CC[C@H]2[C@@H]3CC=C4C[C@@](C)(O)CC[C@]4(C)[C@H]3CC[C@]12C` [Compound 7467], the EC50 in assay [1] was more than 10 µM.

(Values after patent publication US11149054B2, “Oxysterols and methods of use thereof” (Sage Therapeutics, Inc., priority 2016, dated 2021).)
